Reference: ChEMBL document CHEMBL5036343, “Discovery and development of CPL207280 as new GPR40/FFA1 agonist” (Eur J Med Chem, 2021)

Experiments:
Type in all cases: ADME, organism-based
Conditions in all cases: in vivo
[1] = Cmax in Wistar Han rat at 3 mg/kg, po measured after 24 hours by UPLC-MS/MS analysis; set-up: route oral, dose 3 mg/kg, time 24 hrs
[2] = Tmax in Wistar Han rat at 3 mg/kg, po measured after 24 hours by UPLC-MS/MS analysis
[3] = Half life in Wistar Han rat at 3 mg/kg, po measured after 24 hours by UPLC-MS/MS analysis
[4] = Oral bioavailability in Wistar Han rat at 3 mg/kg measured after 24 hours by UPLC-MS/MS analysis

Cmax [1] [ng/mL]	Tmax [2] [h]	half-life [3] [h]	bioavailability [4] [%]	SMILES
1830	2	2.9	36	Cc1cc(OCCCS(C)(=O)=O)cc(C)c1-c1cccc(COc2ccc3c(c2)OC[C@H]3CC(=O)O)c1
1700	1	1.41	65	CC#C[C@@H](CC(=O)O)c1ccc(OCC(C)=C(C)C)cc1
